The values below come from PubChem BioAssay (NCI).

Holding throughout (assay): inhibition of tumour cell growth, NCI panel, 48 h
Test [1] concerns MCF7 breast.
Test [2] concerns KM12 colon.
In test [3] the test system is A498 renal.
Test [4] has as its system SN12C renal.
The subject of test [5] is IGROV1 ovarian.
For test [6], the system named is OVCAR-5 ovarian.
Test [7] concerns MOLT-4 leukemia.
Test [8] deals with NCI-H23 lung.
Test [9] deals with RPMI-8226 leukemia.
Test [10] concerns SW-620 colon.
For test [11], the system named is NCI-H226 lung.
Test [12] deals with BT-549 breast.
For test [13], the system named is PC-3 prostate.

Molecules are shown by their SMILES.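 These data come from cells grown in 96-well plates and exposed to compound for 48 hours at five concentrations. Definition used: TGI = concentration required for complete inhibition of growth.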

For the compound `Cc1cc(NC(=S)Nc2ccccc2)c(NC(=S)Nc2ccccc2)cc1C`, the TGI is 98.6 µM in test [1]; greater than 100 µM in test [2]; 98.3 µM in test [3]; greater than 100 µM in [4]; greater than 100 µM in test [5]; greater than 100 µM in test [6]. In addition, the TGI in test [7] was greater than 60.1 µM; in test [8] it was greater than 95.1 µM; in [9] it was 40.4 µM; in test [10] it was greater than 100 µM; in test [11], greater than 100 µM.

For `Nc1ccccc1CCCC(=O)O`, the TGI in test [12], in [13], in test [1], in test [2], in test [3] and in [4] was greater than 100 µM throughout. Moreover, the TGI in test [5], in test [6], in test [7], in test [8], in [9] and in test [10] was greater than 100 µM in each case. Further, the TGI in [11] is greater than 100 µM.

`COCc1nc2c(OC)cc(-c3nc4nc(N5CCN(C)CC5)ccc4[nH]3)c(OC)c2[nH]1`: the TGI in test [12], in [13], in test [1], in test [2], in [3] and in test [4] was greater than 100 µM each time. In addition, the TGI in test [5], in test [6], in test [7], in [8], in test [10] and in test [11] was greater than 100 µM throughout.

Turning to `COc1cc2c(cc1OCCCOc1cc(-c3ccc(F)cc3)nc(C)n1)N=C[C@@H]1CCCN1C2=O`, the TGI in test [1] is greater than 100 µM; in test [2], 36.2 µM; in [3], 26.4 µM; in [4], 32.3 µM; in [5] it was 44.8 µM; in [7], 61.1 µM. For the same compound, the TGI in test [8] was 29.4 µM; in test [9] it was greater than 100 µM; in test [10], 64 µM; in test [11] it was 30.5 µM.

Take `CCC(=O)Nc1ccc(N=Cc2cccc(Oc3ccccc3)c2)cc1`: the TGI in test [12], in [13], in [1], in test [2], in test [3] and in test [4] was greater than 100 µM each time. The TGI is greater than 100 µM in [5]; 76.8 µM in test [7]; greater than 100 µM in test [8]; 63.1 µM in test [9]; greater than 100 µM in [10]; greater than 100 µM in test [11].

As to `Cn1c2ccccc2c2c(-c3ccccc3)[n+]3ccccc3nc21`, the TGI in test [12] is 54.7 µM; in test [13], greater than 100 µM; in test [2] it was 32.7 µM; in test [3], greater than 100 µM; in test [4], 61.6 µM; in test [5], 80.9 µM. Besides, the TGI in [6] is greater than 100 µM; in test [7], greater than 100 µM; in test [8], 54.1 µM; in test [9], 40.8 µM; in [10] it was 86.9 µM.

As for `COC(=O)CCC(=O)CC(=O)C1=NS(=O)(=O)c2nc(S(N)(=O)=O)c(Cl)cc2N1`, the TGI in test [2], in test [3], in test [4], in [5], in [6] and in test [7] was greater than 100 µM each time. Further, the TGI in test [8], in test [9] and in [11] was greater than 100 µM each time.

As to `CC(C)=CC1C(COC(=O)c2cc3c(cc2Cl)OCO3)C1(C)C` (stereo not given), the TGI is 81.8 µM in test [12]; greater than 100 µM in test [13]; greater than 100 µM in test [2]; 90.6 µM in test [3]; greater than 100 µM in test [4]; greater than 100 µM in test [5]. Moreover, the TGI in test [6] was greater than 100 µM; in test [7], greater than 100 µM; in test [8] it was greater than 100 µM; in test [10], greater than 100 µM; in test [11], 91.2 µM.

Take `COc1cc(O)cc(/C=C/c2ccc(O)cc2)c1`: the TGI in test [12] is 39.6 µM; in [13] it was greater than 100 µM; in [1], greater than 100 µM; in test [2] it was 93.7 µM; in test [3] it was 94.3 µM; in test [4], 77.8 µM. Also, the TGI was greater than 100 µM in [5]; greater than 100 µM in test [6]; greater than 100 µM in [7]; 96.1 µM in test [8]; 25.7 µM in test [9]; greater than 100 µM in test [10]. Besides, the TGI in test [11] stood at 63.1 µM.

On to `O=C(O)CNC(=O)CO/N=C1/C(c2c(O)[nH]c3ccccc23)=Nc2ccccc21`, for which the TGI in test [12], in test [13], in test [1], in [2], in [4] and in [5] was greater than 100 µM throughout. The TGI in test [6], in test [7], in test [8], in [9], in [10] and in test [11] was greater than 100 µM each time.

With `CC1C(=O)OC2CC[N+]3(CC(=O)c4ccc(Br)cc4)CC=C(COC(=O)C(C)(O)C1(C)O)C23` (stereo not given), the TGI in [1], in test [2], in test [3], in test [4], in [5] and in test [6] was greater than 375 µM in each case. Moreover, the TGI in test [7], in test [8], in test [9], in [10] and in test [11] was greater than 375 µM each time.
